Measured values: US6656943B2, “1-phenyl-4-benzlpiperazines: dopamine receptor subtype specific ligands” (Neurogen Corporation, priority 1997, dated 2003)
Where a name gives a salt, the structure may show the parent alone.

Tests used:
[1] = target: T1, D4 receptors (Homo sapiens, UniProt P21917); assay: D4 receptor binding assay (3H-YM 09151-2 displacement)
T1 construct: expressed in transfected cells; host or cells: COS cells
T1 sequence (P21917 1-419): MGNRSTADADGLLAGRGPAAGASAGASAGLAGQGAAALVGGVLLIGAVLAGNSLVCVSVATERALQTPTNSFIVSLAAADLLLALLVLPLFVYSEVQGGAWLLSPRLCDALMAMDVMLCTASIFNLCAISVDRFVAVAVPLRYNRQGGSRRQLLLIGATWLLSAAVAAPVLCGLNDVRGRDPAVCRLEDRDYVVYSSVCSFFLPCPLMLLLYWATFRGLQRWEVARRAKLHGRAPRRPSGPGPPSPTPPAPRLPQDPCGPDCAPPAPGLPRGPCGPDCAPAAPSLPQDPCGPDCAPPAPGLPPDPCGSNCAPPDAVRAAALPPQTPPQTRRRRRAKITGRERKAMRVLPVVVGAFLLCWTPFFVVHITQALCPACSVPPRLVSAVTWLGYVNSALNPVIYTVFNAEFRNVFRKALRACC
Experimental: (§1) Pellets of COS cells containing recombinantly produced D2 or D4 receptors from human are used for the assays. The sample is homogenized in 100 volumes (w/vol) of 0.05 M Tris HCl buffer at 4° C. and pH 7.4. The sample is then centrifuged at 30,000×g and resuspended and rehomogenized. The sample is then centrifuged as described above and the final tissue sample is frozen until use. The tissue is resuspended 1:20 (wt/vol) in 0.05 M Tris HCl buffer containing 100 mM NaCl.
(§2) Incubations are carried out at […]. and contain 0.4 ml of tissue sample, 0.5 nM 3H-YM 09151-2 and the compound of interest in a total incubation mixture of 1.0 ml. Nonspecific binding is defined as that binding found in the presence of 1 mM spiperone; without further additions, nonspecific binding is less than 20% of total binding. Representative binding characteristics for compounds of the invention for the D2 and D4 receptor subtypes are shown in Table 2 for cloned human dopamine receptors. Typically, the compounds of the invention have similar binding profiles.

[2] = target: T2, D2 receptors (Homo sapiens, UniProt P14416); assay: D2 receptor binding assay (3H-YM 09151-2 displacement)
T2 construct: expressed in transfected cells; host or cells: COS cells
T2 sequence (P14416 whole entry): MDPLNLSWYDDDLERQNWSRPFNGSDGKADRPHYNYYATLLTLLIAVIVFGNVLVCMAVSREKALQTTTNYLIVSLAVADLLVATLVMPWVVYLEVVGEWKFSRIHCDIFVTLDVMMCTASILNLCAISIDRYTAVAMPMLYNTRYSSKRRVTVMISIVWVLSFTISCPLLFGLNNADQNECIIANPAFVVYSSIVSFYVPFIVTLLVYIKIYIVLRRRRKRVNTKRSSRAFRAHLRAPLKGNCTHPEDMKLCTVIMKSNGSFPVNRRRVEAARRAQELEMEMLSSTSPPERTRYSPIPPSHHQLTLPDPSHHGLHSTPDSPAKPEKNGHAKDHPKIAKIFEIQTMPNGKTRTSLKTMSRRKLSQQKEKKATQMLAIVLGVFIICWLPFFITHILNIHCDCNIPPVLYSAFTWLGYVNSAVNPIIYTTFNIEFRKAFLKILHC
Experimental: as §1, §2

Row | SMILES | melting point [°C] | Ki [1] [nM] | Ki [2] [nM]
1 | Cc1cccc(N2CCN(Cc3ccc(Cl)cc3)CC2)c1.O=C(O)C(=O)O.O=C(O)C(=O)O | 233 to 235 | – | –
2 | Cc1ccc(N2CCN(Cc3ccc(Cl)cc3)CC2)cc1.O=C(O)C(=O)O.O=C(O)C(=O)O | 204 to 206 | – | –
3 | Cc1ccc(CN2CCN(c3cccc(Cl)c3)CC2)cc1.O=C(O)C(=O)O.O=C(O)C(=O)O | 199 to 200 | – | –
4 | Cc1ccc(N2CCN(Cc3ccc(Cl)cc3)CC2)cc1C (as salt: hydrochloride) [Compound 2, 1-(3,4-dimethylphenyl)-4-(4-chlorobenzyl)piperazine dihydrochloride] | 225 to 228 | – | –
5 | Cc1ccc(CN2CCN(c3ccc(Cl)cc3)CC2)cc1 [Compound 4, 1-(4-chlorophenyl)-4-(4-methylbenzyl)piperazine dihydrobromide] | – | 15 | > 300
6 | COc1ccc(N2CCN(Cc3ccc(Cl)cc3)CC2)cc1 (as salt: oxalate) [Compound 3, 1-(4-methoxyphenyl)-4-(4-chlorobenzyl)piperazine dioxalate] | 211 to 212 | – | –
7 | Cc1ccccc1N1CCN(Cc2ccc(Cl)cc2)CC1.O=C(O)C(=O)O.O=C(O)C(=O)O | 205 to 206 | – | –
8 | Br.Br.Clc1ccc(CN2CCN(c3cccc(Cl)c3)CC2)cc1 | 238 to 240 | – | –
9 | COc1ccc(N2CCN(Cc3ccc(Cl)cc3)CC2)cc1 [Compound 3, 1-(4-methoxyphenyl)-4-(4-chlorobenzyl)piperazine dioxalate] | – | 5 | > 1000
10 | COc1ccccc1N1CCN(Cc2ccc(Cl)cc2)CC1.O=C(O)C(=O)O.O=C(O)C(=O)O | 217 to 220 | – | –
11 | CCOc1ccc(N2CCN(Cc3ccc(Cl)cc3)CC2)cc1.Cl.Cl | 235 to 237 | – | –
12 | Clc1ccc(CN2CCN(c3ccccc3)CC2)cc1.O=C(O)C(=O)O.O=C(O)C(=O)O | 228 to 231 | – | –
13 | Clc1ccc(CN2CCN(c3ccc(Cl)c(Cl)c3)CC2)cc1 | 82 to 83 | – | –
14 | Br.Br.CCOc1ccccc1N1CCN(Cc2ccc(Cl)cc2)CC1 | 215 to 217 | – | –
15 | Cc1ccc(N2CCN(Cc3ccc(Cl)cc3)CC2)cc1C [Compound 2, 1-(3,4-dimethylphenyl)-4-(4-chlorobenzyl)piperazine dihydrochloride] | – | 16 | > 600
16 | Clc1ccc(CN2CCN(c3ccccc3Cl)CC2)cc1.O=C(O)C(=O)O.O=C(O)C(=O)O | 203 to 204 | – | –
17 | Clc1ccc(CN2CCN(c3ccc(Cl)cc3)CC2)cc1 [Compound 1, 1-(4-Chlorophenyl)-4-(4-chlorobenlzyl)piperazine Dihydrochloride] | – | 5 | > 1000
